Measurements as given in ChEMBL document CHEMBL5120836, “Discovery of novel 7,8-dihydropteridine-6(5H)-one-based DNA-PK inhibitors as potential anticancer agents via scaffold hopping strategy” (Eur J Med Chem, 2022).
Converted amounts (≈) assume the structure as drawn. The source made the active and inactive calls. No cut-off for these calls is given here.

Tests used:
[1] = tested on: HepG2; experiment: Synergistic antiproliferative activity against Doxorubicin-resistant human HepG2 cells assessed as inhibition of cell growth in presence of 100 nM doxorubicin by MTT assay; type: functional, cell-based
[2] = Toxicity in BALB/c nude mouse xenografted with human HL-60 cells assessed as serum lymphocytes content at 100 mg/kg, po qd for 16 days (reference value: 2.65X10^9/L); type: organism-based; details: in vivo, 384 h, time 16 day
[3] = tested on: MDA-MB-231; experiment: Synergistic antiproliferative activity against human MDA-MB-231 cells assessed as combination index at 6.25 uM in presence of 0.1 uM doxorubicin by MTT assay; type: functional
[4] = Toxicity in BALB/c nude mouse xenografted with human HL-60 cells assessed as liver morphological alterations at 100 mg/kg, po qd for 16 days by Hematoxylin and Eosin staining based analysis; type: organism-based; details: in vivo, 384 h, time 16 day
[5] = Toxicity in BALB/c nude mouse xenografted with human HL-60 cells assessed as serum monocytes content at 100 mg/kg, po qd for 16 days (reference value: 0.5X10^9/L); type: organism-based; details: in vivo, 384 h, time 16 day
[6] = tested on: HCT-116; experiment: Synergistic antiproliferative activity against human HCT-116 cells assessed as combination index at 100 uM incubated for 48 hrs in presence of 0.1 to 50 uM doxorubicin by MTT assay; type: functional
[7] = tested on: HL-60; experiment: Synergistic antiproliferative activity against human HL-60 cells assessed as combination index at 3.1 uM in presence of 0.1 uM doxorubicin by MTT assay; type: functional
[8] = Toxicity in BALB/c nude mouse xenografted with human HL-60 cells assessed as serum WBC content at 100 mg/kg, po qd for 16 days (reference value: 3.8X10^9/L); type: organism-based; details: in vivo, 384 h, time 16 day
[9] = Toxicity in BALB/c nude mouse xenografted with human HL-60 cells assessed as RDW-CV level at 100 mg/kg, po qd for 16 days (reference value: 14.25%); type: organism-based; details: in vivo, 384 h, time 16 day
[10] = tested on: MCF7; experiment: Synergistic antiproliferative activity against human MCF7 cells assessed as combination index at 12.5 uM in presence of 0.1 uM doxorubicin by MTT assay; type: functional
[11] = tested on: MCF7; experiment: Synergistic antiproliferative activity against human MCF7 cells assessed as combination index at 0.1 uM in presence of 0.1 uM doxorubicin by MTT assay; type: functional
[12] = tested on: HL-60; experiment: Synergistic antiproliferative activity against human HL-60 cells assessed as combination index at 0.5 uM in presence of 0.1 uM doxorubicin by MTT assay; type: functional
[13] = tested on: HCT-116; experiment: Induction of apoptosis in human HCT-116 cells assessed as late apoptotic cells at 1 uM incubated for 24 hrs in presence of 100 nM doxorubicin by AnnexinV-FITC/PI staining based flow cytometry (reference value: 3.07%); type: functional
[14] = tested on: HCT-116; experiment: Inhibition of cell migration in human HCT-116 cells at 1 uM measured after 24 hrs by wound healing assay; type: functional, cell-based
[15] = Toxicity in BALB/c nude mouse xenografted with human HL-60 cells assessed as HGB level at 100 mg/kg, po qd for 16 days (reference value: 156 g/L); type: organism-based; details: in vivo, 384 h, time 16 day
[16] = tested on: MDA-MB-231; experiment: Synergistic antiproliferative activity against human MDA-MB-231 cells assessed as combination index at 100 uM in presence of 0.1 uM doxorubicin by MTT assay; type: functional
[17] = tested on: HCT-116; experiment: Inhibition of colony formation in human HCT-116 cells at 1 uM in presence of 100 nM doxorubicin; type: functional, cell-based
[18] = tested on: HCT-116; experiment: Induction of apoptosis in human HCT-116 cells assessed as early apoptotic cells at 1 uM incubated for 24 hrs in presence of 100 nM doxorubicin by AnnexinV-FITC/PI staining based flow cytometry (reference value: 3.04%); type: functional
[19] = tested on: MCF7; experiment: Synergistic antiproliferative activity against human MCF7 cells assessed as combination index at 50 uM in presence of 0.1 uM doxorubicin by MTT assay; type: functional
[20] = Half life in human liver microsomes; type: ADME, Microsome
[21] = Toxicity in BALB/c nude mouse xenografted with human HL-60 cells assessed as effect on body weight at 100 mg/kg, po qd for 16 days; type: organism-based; details: in vivo, 384 h, time 16 day
[22] = tested on: MCF7; experiment: Synergistic antiproliferative activity against human MCF7 cells assessed as inhibition of cell growth in presence of 100 nM doxorubicin by MTT assay; type: functional, cell-based
[23] = tested on: MDA-MB-231; experiment: Synergistic antiproliferative activity against human MDA-MB-231 cells assessed as combination index at 1 uM in presence of 0.1 uM doxorubicin by MTT assay; type: functional
[24] = tested on: HL-60; experiment: Synergistic antiproliferative activity against human HL-60 cells assessed as combination index at 25 uM in presence of 0.1 uM doxorubicin by MTT assay; type: functional
[25] = Lipophilicity, logP of the compound; type: physicochemical; details: octanol/water
[26] = tested on: MCF7; experiment: Synergistic antiproliferative activity against human MCF7 cells assessed as combination index at 6.25 uM in presence of 0.1 uM doxorubicin by MTT assay; type: functional
[27] = Toxicity in BALB/c nude mouse xenografted with human HL-60 cells assessed as effect on body weight at 100 mg/kg, po qd for 16 days co-administered with doxorubicin; type: organism-based; details: in vivo, 384 h, time 16 day
[28] = Toxicity in BALB/c nude mouse xenografted with human HL-60 cells assessed as MCV level at 100 mg/kg, po qd for 16 days (reference value: 57.2 fL); type: organism-based; details: in vivo, 384 h, time 16 day
[29] = Toxicity in BALB/c nude mouse xenografted with human HL-60 cells assessed as platelets level at 100 mg/kg, po qd for 16 days (reference value: 738.5X10^9/L); type: organism-based; details: in vivo, 384 h, time 16 day
[30] = tested on: HepG2; experiment: Synergistic antiproliferative activity against Doxorubicin-resistant human HepG2 cells assessed as combination index at 12.5 uM in presence of 0.1 uM doxorubicin by MTT assay; type: functional
[31] = Kinetic solubility of the compound in phosphate-buffered solution at pH 6.4 incubated for 24 hrs by HPLC-MS/MS analysis; type: physicochemical; details: phosphate buffer, read-out: Kinetic_solubility
[32] = tested on: HL-60; experiment: Synergistic antiproliferative activity against human HL-60 cells assessed as combination index at 50 uM in presence of 0.1 uM doxorubicin by MTT assay; type: functional
[33] = Toxicity in BALB/c nude mouse xenografted with human HL-60 cells assessed as HCT level at 100 mg/kg, po qd for 16 days (reference value: 66.3%); type: organism-based; details: in vivo, 384 h, time 16 day
[34] = tested on: MDA-MB-231; experiment: Synergistic antiproliferative activity against human MDA-MB-231 cells assessed as combination index at 50 uM in presence of 0.1 uM doxorubicin by MTT assay; type: functional
[35] = Toxicity in BALB/c nude mouse xenografted with human HL-60 cells assessed as PCT level at 100 mg/kg, po qd for 16 days (reference value: 0.7%); type: organism-based; details: in vivo, 384 h, time 16 day
[36] = Intrinsic clearance in rat liver microsomes; type: ADME, Microsome; details: read-out: CLH
[37] = tested on: HCT-116; experiment: Induction of apoptosis in human HCT-116 cells assessed as viable cells at 1 uM incubated for 24 hrs in presence of 100 nM doxorubicin by AnnexinV-FITC/PI staining based flow cytometry (reference value: 93.9%); type: functional; details: read-out: Activity
[38] = Intrinsic clearance in human liver microsomes; type: ADME, Microsome; details: read-out: CLH

Q: Which results are given for `Cc1cc2ncnn2cc1Nc1ncc2c(n1)N(C1CCOCC1)CC(=O)N2C`?
A: Activity [1]: Active; Activity [2]: 3.2 10^9/L; CI [3]: 0.3693; Activity [4]: Non-Toxic; Activity [5]: 0.51 10^9/L; CI [6]: <0.1; CI [7]: 0.01772; Activity [8]: 4.35 10^9/L; Activity [9]: 15%; CI [10]: 0.06131; CI [11]: 0.2844; CI [12]: 0.00341; Activity [13]: 7.51%; inhibition [14]: Active; Activity [15]: 148 g/L; CI [16]: 0.9806; inhibition [17]: Active; Activity [18]: 13.3%; CI [19]: 0.1215; half-life [20]: > 2.42 h; Activity [21]: Non-Toxic; Activity [22]: Active; CI [23]: 0.2676; CI [24]: 0.1382; logP [25]: 1.28; CI [26]: 0.06841; Activity [27]: Non-Toxic; Activity [28]: 56.1 fL; Activity [29]: 750 10^9/L; CI [30]: 0.04474; solubility kinetic at 24 h [31]: 72.2 µg/mL (≈ 183 µM); CI [32]: 0.2758; Activity [33]: 65.1%; CI [34]: 0.705; Activity [35]: 0.641%; microsomal CLint [36]: < 9.6 µL/min/mg; viability at 1 µM [37]: 79.1%; microsomal CLint [38]: < 9.6 µL/min/mg
